One experiment deals with T1, DRB1*0301 (DR3) (Homo sapiens, UniProt P01903+P01911, A100K/A102G/A103R/A169T/F55Y/I96L/K41T/L162R/M171V/P40S/Q125H/Q178H/Q39Y/R42S/S66N/T106N/T262R/W38E/Y61H).
T1 construct: endogenous in cells; host or cells: MAT
The experiment can be described thus: Purified HLA class II peptide binding assay, pH 4.5.

The target of a further experiment is T2, DRB1*1302 (DR6w19) (Homo sapiens, UniProt P01903+P01911, A100E/A169T/K41T/L162R/M171V/P40S/Q125H/Q178H/Q39Y/Q99D/R42S/S66N/T262R/V115G/W38E/Y61H).
T2 construct: endogenous in cells
T2 sequence (P01903 26-254, other chains not shown): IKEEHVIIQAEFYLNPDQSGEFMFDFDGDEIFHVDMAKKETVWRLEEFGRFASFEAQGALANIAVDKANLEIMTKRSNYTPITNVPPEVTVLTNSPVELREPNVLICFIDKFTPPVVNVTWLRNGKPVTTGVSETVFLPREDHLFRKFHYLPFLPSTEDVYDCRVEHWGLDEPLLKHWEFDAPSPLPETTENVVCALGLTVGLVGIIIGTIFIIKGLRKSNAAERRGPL
Briefly: Purified HLA class II peptide binding assay.

The next experiment addresses T3, A*0301 (Homo sapiens, UniProt P04439).
T3 construct: endogenous in cells; host or cells: GM3107
The experiment can be described thus: Purified HLA class I peptide binding assay (HLA-A*03).

A further experiment addresses A*1101 (Homo sapiens, UniProt P04439, A114D/D185E/E176A/F33Y/L180Q/S129P/T187R). The experiment can be described thus: Purified HLA class I peptide binding assay (HLA-A*11).
In the next experiment the target is A*3101 (Homo sapiens, UniProt P04439, A270S/D185E/E176V/E277Q/F33T/G231S/G80R/H175R/I121M/I218V/I322F/K168Q/L300P/L318F/M331R/P217A/Q94H/R138Q/T323A/T345S/T97I/V358M). The experiment can be described thus: Purified HLA class I peptide binding assay.
The next experiment has as its target A*3301 (Homo sapiens, UniProt P04439, A270S/D185E/E176V/E277Q/E87N/F33T/G231S/H175R/I121M/I218V/I322F/K168Q/K210R/L300P/L318F/M331R/P217A/Q86R/Q94H/R138Q/T323A/T345S/T97I/V358M/Y195H). Briefly: biochemical. The format is binding.
A further experiment concerns the target A*6801 (Homo sapiens, UniProt P04439, A269V/D185E/E176V/E277Q/E87N/F33Y/G231S/I121M/I166T/I218V/L180W/L300P/L318F/N151K/P208A/P217A/Q86R/R169H/T345S). Briefly: Purified HLA class I peptide binding assay.
The target of a further experiment is A*0202 (Homo sapiens, UniProt P04439, D140Y/D185E/D98H/E176V/E277Q/G131W/G231S/I119L/I121R/I166T/I218V/L180W/L300P/L318F/N151K/N90K/P208A/P217A/Q67R/Q86G/Q94H/R138H/R169H/T345S). Briefly: Purified HLA class I peptide binding assay.
The target in a further experiment is A*6802 (Homo sapiens, UniProt P04439, A269V/D140Y/D185E/E176V/E277Q/E87N/F33Y/G231S/I121R/I166T/I218V/L180W/L300P/L318F/N151K/P208A/P217A/Q86R/R138H/R169H/S129P/T345S/V36M). The experiment can be described thus: Purified HLA class I peptide binding assay.
Another experiment concerns A2-supertype alleles. The class given is binding, human. Conditions: number of supertype alleles bound; 3 or more considered degenerate.
In experiment [1] the test system is target cells loaded with the wild type or the lamivudine induced mutant peptide. The experiment can be described thus: Cross-recognition of HBV pol 538 and Lamivudine induced pol 538 variant by CTL induced with the 1090.77 analog. Conditions: CTLs induced with 1090.77 analog encoded in DNA minigene pEP2.AOS, stimulated with the row's peptide, geometric mean of 2 independent cultures. The class given is cell-based.

Bounds are passed on as bounds.

By IC50 is commonly meant the concentration at which inhibition is half-maximal. The low end stands for higher potency, the high end for lower potency. Regarding `CC[C@H](C)[C@H](NC(=O)[C@H](Cc1c[nH]c2ccccc12)NC(=O)[C@@H](NC(=O)CN)C(C)C)C(=O)N[C@@H](CCCNC(=N)N)C(=O)N[C@H](C(=O)N1CCC[C@H]1C(=O)N1CCC[C@H]1C(=O)N[C@@H](C)C(=O)N[C@@H](Cc1ccc(O)cc1)C(=O)N[C@@H](CCCNC(=N)N)C(=O)N1CCC[C@H]1C(=O)N1CCC[C@H]1C(=O)N[C@@H](CC(N)=O)C(=O)N[C@@H](C)C(=O)O)[C@@H](C)O` [27.0280], the IC50 at DRB1*0301 (DR3) is > 20000 nM; on DRB1*1302 (DR6w19), > 20 µM.
On to `CC[C@H](C)[C@H](NC(=O)[C@@H]1CCCN1C(=O)[C@H](CC(C)C)NC(=O)[C@@H](N)CC(C)C)C(=O)N[C@@H](Cc1ccccc1)C(=O)N[C@@H](Cc1ccccc1)C(=O)N[C@@H](CS)C(=O)N[C@@H](CC(C)C)C(=O)N[C@@H](Cc1c[nH]c2ccccc12)C(=O)N[C@H](C(=O)N[C@@H](Cc1ccc(O)cc1)C(=O)O)C(C)C` [Peptide 26.0549], for which the IC50 on A*0301 is 478 nM; at A*1101, 10 µM; on A*3101 it was 2610 nM; against A*3301 it was 644 nM; at A*6801, 82 nM.
`CC[C@H](C)[C@H](N)C(=O)N[C@@H](CC(C)C)C(=O)N[C@@H](CO)C(=O)N[C@H](C(=O)N[C@@H](CC(C)C)C(=O)N1CCC[C@H]1C(=O)N[C@@H](CCC(=O)O)C(=O)N[C@H](C(=O)N[C@H](C(=O)N[C@H](C(=O)O)C(C)C)[C@@H](C)O)[C@@H](C)O)[C@@H](C)O` [Peptide 1069.14]: the IC50 came to 506 nM at A*0202 and 5.97 µM at A*6802. Besides, in the experiment with A2-supertype alleles, the Alleles bound was found to be 2.
Consider `CC(C)C[C@H](NC(=O)[C@H](Cc1c[nH]c2ccccc12)NC(=O)[C@H](CO)NC(=O)[C@H](CC(C)C)NC(=O)[C@@H](N)CC(N)=O)C(=O)N[C@@H](CO)C(=O)N[C@@H](CC(C)C)C(=O)N[C@@H](CC(=O)O)C(=O)N[C@H](C(=O)N[C@@H](CO)C(=O)N[C@@H](C)C(=O)N[C@@H](C)C(=O)N[C@@H](Cc1ccccc1)C(=O)N[C@@H](Cc1ccc(O)cc1)C(=O)N[C@@H](Cc1c[nH]cn1)C(=O)O)C(C)C` [Peptide 1186.18], for which the IC50 on DRB1*0301 (DR3) stood at 231 nM.
With YVDDVVLGA [1353.02], the “Day 6 CTL response (ΔLU), target cells loaded with HBV pol 538 (YMDDVVLGA)” value in experiment [1] (targets loaded with 1090.14) is given as 35.3 ΔLU. Also, the “Day 6 CTL response (ΔLU), target cells loaded with HBV pol 538 mutant (YVDDVVLGA)” value in [1] (targets loaded with 1353.02) is reported as 27.9 ΔLU.

Values taken from patent US20070059799A1 (priority 1999, published 2007).
